Data: patent US20260001914A1, “MACROCYCLIC PEPTIDES TARGETING KRAS” (Merck Sharp & Dohme LLC, priority 2022, published 2026)
*1 amine or outer side, *2 acyl side, *3 side chain or, on linkers, in order; H or OH if unused. Where a SMILES comes first, the peptide text is derived from it. Bridges are numbered along the chain shown (N, C = ends). [ ]: non-standard residue; d: D form. NMeNva(5-imidazol-1-yl) = CN[C@@H](CCCn1ccnc1)C(=O)O; X59 = O=C([C@H](Cc1ccc(CN2CCCC2)cc1)N[*:1])[*:2]; X6 = O=C([C@H](Cc1cnn(C2COC2)c1)N[*:1])[*:2]; Ala(2-pyrazinyl) = N[C@@H](Cc1cnccn1)C(=O)O; Phe(4-F) = N[C@@H](Cc1ccc(F)cc1)C(=O)O; Phe(4-Me) = Cc1ccc(C[C@H](N)C(=O)O)cc1; 1Nal = N[C@@H](Cc1cccc2ccccc12)C(=O)O; NHCH2CH2SCH2CO = O=C(CSCCN[*:1])[*:2]; Phe(2-F) = N[C@@H](Cc1ccccc1F)C(=O)O; NMe3Pal = CN[C@@H](Cc1cccnc1)C(=O)O; X1 = O=C(C12CC(CN[*:1])(C1)C2)[*:2]; NMeF = CN[C@@H](Cc1ccccc1)C(=O)O; PhLac = O=C(O)[C@@H](O)Cc1ccccc1; hIle = CC[C@H](C)C[C@H](N)C(=O)O; 3Pal = N[C@@H](Cc1cccnc1)C(=O)O; 4Pal = N[C@@H](Cc1ccncc1)C(=O)O; NMeA = CN[C@@H](C)C(=O)O; Nle = CCCC[C@H](N)C(=O)O; Nva = CCC[C@H](N)C(=O)O

Molecular target: KRAS-G12D protein (Homo sapiens, UniProt P01116, G12D)
Experiment: SOS-mediated nucleotide exchange assay (BODIPY-GDP / Tb-streptavidin TR-FRET)
Format: biochemical

Sequence of KRAS-G12D protein (P01116 1-188 isoform P01116-2 G12D): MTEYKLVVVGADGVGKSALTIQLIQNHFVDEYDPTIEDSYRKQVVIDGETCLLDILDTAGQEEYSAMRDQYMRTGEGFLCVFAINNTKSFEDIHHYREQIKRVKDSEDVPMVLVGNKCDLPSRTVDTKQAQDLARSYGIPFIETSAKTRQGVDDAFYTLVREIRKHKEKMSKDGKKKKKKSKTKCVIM

Row | Structure (SMILES) | EC50
1 | CCC[C@@H]1NC(=O)[C@H](Cc2ccc(O)cc2)NC(=O)[C@H](CC(C)C)NC(=O)[C@H](Cc2ccc(O)cc2)NC(=O)[C@H](CCCNC(=N)N)NC(=O)[C@H](Cc2ccccc2)NC(=O)CSC[C@H](C(N)=O)NC(=O)[C@H](Cc2ccccc2)N(C)C1=O [compound 21, cyclo(F-R-Y-L-Y-Nva-NMeF-dCl-ClAc)] | 6.42 µM
2 | CCCC[C@@H]1NC(=O)[C@H](Cc2ccc(CN3CCCC3)cc2)NC(=O)[C@H](CCCn2ccnc2)N(C)C(=O)[C@H](Cc2ccccc2)N(C)C(=O)C23CC(CNC(=O)[C@H](Cc4cccnc4)N(C)C(=O)[C@H](CCCC)NC(=O)[C@H](Cc4ccccc4F)NC1=O)(C2)C3 [compound 259, cyclo(NMeF-NMeNvalmid-Phe4cPyrr-Nle-Phe2F-Nle-NMe3Pal-amBCP)] (cyclo([NMe3Pal][X1][NMeF][NMeNva(5-imidazol-1-yl)][X59][Nle][Phe(2-F)][Nle])) | 3.22 µM
3 | CCC[C@@H]1NC(=O)[C@H](Cc2ccc(OC)cc2)NC(=O)[C@H](C[C@@H](C)CC)NC(=O)[C@H](Cc2ccncc2)NC(=O)[C@H](CCCNC(=N)N)NC(=O)[C@H](Cc2ccc(F)cc2)NC(=O)CSC[C@H](C(=O)O)NC(=O)[C@H](Cc2ccccc2)N(C)C1=O [compound 62, cyclo(Phe4F-R-4Pal-hlle-TyrOMe-Nva-NMeF-dC-ClAc)] ({CH2CO}-[Phe(4-F)]R[4Pal][hIle]Y(Me)[Nva][NMeF][dC]-OH; thioether N-8) | 2.06 µM
4 | CCCC[C@@H]1NC(=O)[C@H](Cc2cccnc2)NC(=O)[C@H](C)N(C)C(=O)[C@H](Cc2ccc(C)cc2)NC(=O)C23CC(CNC(=O)[C@H](Cc4cccnc4)N(C)C(=O)[C@H](CCCC)NC(=O)[C@H](Cc4ccccc4F)NC1=O)(C2)C3 [compound 170, cyclo(Phe4Me-NMeA-3Pal-Nle-Phe2F-Nle-NMe3Pal-amBCP)] (cyclo([3Pal][Nle][Phe(2-F)][Nle][NMe3Pal][X1][Phe(4-Me)][NMeA])) | 0.0911 µM
5 | CCCC[C@@H]1NC(=O)[C@H](Cc2ccc(O)cc2)NC(=O)[C@H](CC(C)C)NC(=O)[C@H](Cc2ccc(O)cc2)NC(=O)[C@H](CCCNC(=N)N)NC(=O)[C@H](Cc2cccc3ccccc23)NC(=O)CSC[C@H](C(N)=O)NC(=O)[C@H](Cc2ccccc2)N(C)C1=O [compound 17, cyclo(INal-R-Y-L-Y-Nle-NMeF-dCl-ClAc)] ({CH2CO}-[1Nal]RYLY[Nle][NMeF][dC]-NH2; thioether N-8) | 1.05 µM
6 | CCCC[C@@H]1NC(=O)[C@H](Cc2cncnc2)NC(=O)[C@H](CCCn2ccnc2)N(C)C(=O)[C@H](Cc2ccccc2)OC(=O)C23CC(CNC(=O)[C@H](Cc4ccccc4)N(C)C(=O)[C@H](CCCC)NC(=O)[C@H](Cc4ccccc4F)NC1=O)(C2)C3 (single isomer, unassigned) [compound 222, cyclo(FLac-NMeNvalmid-PyrimAla-Nle-Phe2F-Nle-NMeF-amBCP)] | 0.494 µM
7 | CCCC[C@@H]1NC(=O)[C@H](Cc2ccc(C(F)(F)F)nc2)NC(=O)[C@H](CCCn2ccnc2)N(C)C(=O)[C@H](Cc2ccccc2)OC(=O)C23CC(CNC(=O)[C@H](Cc4ccccc4)N(C)C(=O)[C@H](CCCC)NC(=O)[C@H](Cc4ccccc4F)NC1=O)(C2)C3 (single isomer, unassigned) [compound 219, cyclo(FLac-NMeNvaImid-4CF33Pal-Nle-Phe2F-Nle-NMeF-amBCP)] | 0.0628 µM
8 | CCCC[C@@H]1NC(=O)[C@H](Cc2cnccn2)NC(=O)[C@H](C)N(C)C(=O)[C@H](Cc2ccccc2)OC(=O)C23CC(CNC(=O)[C@H](Cc4ccccc4)N(C)C(=O)[C@H](CCCC)NC(=O)[C@H](Cc4ccccc4F)NC1=O)(C2)C3 [compound 322, cyclo(FLac-NMeA-AlaPyrz-Nle-Phe2F-Nle-NMeF-amBCP)] (cyclo([NMeA][Ala(2-pyrazinyl)][Nle][Phe(2-F)][Nle][NMeF][X1][PhLac])) | 2.31 µM
9 | CCC[C@@H]1NC(=O)[C@H](Cc2ccc(OC)cc2)NC(=O)[C@H](CC(C)C)NC(=O)[C@H](Cc2cccnc2)NC(=O)[C@H](CCCNC(=N)N)NC(=O)[C@H](Cc2ccc(F)cc2)NC(=O)CSCCNC(=O)[C@H](Cc2ccccc2)N(C)C1=O [compound 87, cyclo(Phe4F-R-3Pal-L-TyrOMe-Nva-NMeF-Cysteamine-ClAc)] (cyclo([3Pal]LY(Me)[Nva][NMeF][NHCH2CH2SCH2CO][Phe(4-F)]R)) | 1.6 µM
10 | CCCC[C@@H]1NC(=O)[C@H](Cc2cnn(C3COC3)c2)NC(=O)[C@H](C)N(C)C(=O)[C@H](Cc2ccccc2)OC(=O)C23CC(CNC(=O)[C@H](Cc4ccccc4)N(C)C(=O)[C@H](CCCC)NC(=O)[C@H](Cc4ccccc4F)NC1=O)(C2)C3 [compound 317, cyclo(FLac-NMeA-AlaPyz1Ox-Nle-Phe2F-Nle-NMeF-amBCP)] (cyclo([NMeA][X6][Nle][Phe(2-F)][Nle][NMeF][X1][PhLac])) | 0.0227 µM
11 | CCCC[C@@H]1NC(=O)[C@H](Cc2ccncc2)NC(=O)[C@H](CCCNC(=N)N)NC(=O)[C@H](Cc2ccc(F)cc2)NC(=O)CSCCNC(=O)[C@H](Cc2ccccc2)N(C)C(=O)[C@H](CCCC)NC(=O)[C@H](Cc2ccc(OC)cc2)NC1=O [compound 90, cyclo(Phe4F-R-4Pal-Nle-TyrOMe-Nle-NMeF-Cysteamine-ClAc)] (cyclo([4Pal][Nle]Y(Me)[Nle][NMeF][NHCH2CH2SCH2CO][Phe(4-F)]R)) | 0.432 µM
